From US20060069132A1, “Azolecarboxamide herbicides” (priority 2004, published 2006)

Key:
[1] = tested on: itchgrass; test: Test E pre-/postemergence herbicide test; format: in vivo, Rottboellia cochinchinensis; conditions: Preemergence
In short: (§1)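 Ratings from 0 (no effect) to 100 (complete control) were assigned by visual comparison with untreated plants 12 to 14 days after application. Test chemicals, formulated with surfactant in a non-phytotoxic solvent blend, were applied to soil after planting or to foliage of 2–18 cm plants.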

[2] = tested on: purple nutsedge; test: Test E pre-/postemergence herbicide test; format: in vivo, Cyperus rotundus; conditions: Preemergence
In short: as §1

[3] = tested on: canarygrass; test: Test C postemergence herbicide test; format: in vivo, Phalaris minor
In short: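 Visual rating, 0 (no effect) to 100 (complete control), vs. controls at 12–14 d in greenhouse. Postemergence: 1–4-leaf plants, 2–18 cm. Paddy: flooded, barnyardgrass at 2-leaf stage.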

[4] = tested on: bermudagrass; test: Test E pre-/postemergence herbicide test; format: in vivo, Cynodon dactylon; conditions: Preemergence
In short: as §1

[5] = tested on: Surinam grass; test: Test E pre-/postemergence herbicide test; format: in vivo, Urochloa decumbens; conditions: Preemergence
In short: as §1

[6] = tested on: common chickweed; test: Test E pre-/postemergence herbicide test; format: in vivo, Stellaria media; conditions: Preemergence
In short: as §1

[7] = tested on: prickly sida; test: Test E pre-/postemergence herbicide test; format: in vivo, Sida spinosa; conditions: Preemergence
In short: as §1

[8] = tested on: quackgrass; test: Test E pre-/postemergence herbicide test; format: in vivo, Elytrigia repens; conditions: Preemergence
In short: as §1

[9] = tested on: bipinnate beggarticks; test: Test E pre-/postemergence herbicide test; format: in vivo, Bidens bipinnata; conditions: Preemergence
From the text: Seeds of plant species selected from bipinnate beggarticks (Bidens bipinnata L.), hairy beggarticks (Bidens radiata Thuill.), bermudagrass (Cynodon dactylon (L.) Pers.), Surinam grass (Urochloa decumbens (Staph) R. D. Webster, previously named Brachiaria decumbens Stapf), large crabgrass (Digitaria sanguinalis (L.) Scop.), green foxtail (Setaria viridis (L.) P. Beauv.), goosegrass (Eleusine indica (L.) Gaertn.), johnsongrass (Sorghum halepense (L.) Pers.), kochia (Kochia scoparia (L.) Schrad.), pitted morningglory (Ipomoea lacunosa L.), purple nutsedge (Cyperus rotundus L.), common ragweed (Ambrosia elatior L.), mustard (Brassica nigra (L.) W. D. J. Koch), guineagrass (Panicum maximum Jacq.), dallisgrass (Paspalum dilatatum Poir.), barnyardgrass (Echinochloa crus-galli (L). P. Beauv.), southern sandbur (Cenchrus echinatus L.), common sowthistle (Sonchus oleraceous L.), prickly sida (Sida spinosa L.), Italian ryegrass (Lolium multiflorum Lam.), common purslane (Portulaca oleracea L.), broadleaf signalgrass (Brachiaria platyphylla (Griseb.) Nash), common groundsel (Senecio vulgaris L.), common chickweed (Stellaria media (L.) Vill/Cyr.), tropical spiderwort (Commelina benghalensis L.), annual bluegrass (Poa annua L.), downy bromegrass (Bromus tectorum L.), itchgrass (Rottboellia cochinchinensis (L.) L.f.), quackgrass (Elytrigia repens (L.) Nevski), Canada horseweed (Erigeron Canadensis L.), field bindweed (Convolvulus arvensis L.), spotted spurge (Euphorbia maculata L.), common mallow (Malva sylvestris (=s silvestris) L.), and Russian thistle (Salsola kali L. ssp. Ruthenica (Iljin) Soo) were planted and treated preemergence with test chemicals formulated in a non-phytotoxic solvent mixture which included a surfactant.
At the same time, plants selected from these weed species were treated with postemergence applications of some of the test chemicals formulated in the same manner. Plants ranged in height from 2 to 18 cm (1- to 4-leaf stage) for postemergence treatments. Treated plants and controls were maintained in a greenhouse for 12 to 14 days, after which time all species were compared to controls and visually evaluated. Plant response ratings, summarized in Table E, are based on a scale of 0 to 100 where 0 is no effect and 100 is complete control. A dash (-) response means no test result.

[10] = tested on: annual bluegrass; test: Test E pre-/postemergence herbicide test; format: in vivo, Poa annua; conditions: Preemergence
In short: as §1

[11] = tested on: pitted morningglory; test: Test E pre-/postemergence herbicide test; format: in vivo, Ipomoea lacunosa; conditions: Preemergence
In short: as §1

[12] = 250 g ai/ha, scale 0 (no effect) to 100 (complete control)
[13] = 500 g ai/ha, scale 0 (no effect) to 100 (complete control)
[14] = Postemergence, 250 g ai/ha, scale 0 to 100, 0 no effect, 100 complete control
[15] = postemergence, 125 g ai/ha, scale 0 to 100
[16] = postemergence, 31 g ai/ha, scale 0 to 100
[17] = postemergence, 62 g ai/ha, scale 0 to 100

Row | SMILES | Plant response rating, Itchgrass ([1]; 62 g ai/ha, scale 0 to 100) | Plant response rating, Itchgrass ([1]; 125 g ai/ha, scale 0 to 100) | Plant response rating, Itchgrass [1, 12] | Plant response rating, Itchgrass [1, 13] | Plant response rating, Canarygrass [3, 14] | Plant response rating, Canarygrass [3, 15] | Plant response rating, Canarygrass [3, 16] | Plant response rating, Canarygrass [3, 17] | Plant response rating, Bermudagrass ([4]; 62 g ai/ha, scale 0 to 100) | Plant response rating, Bermudagrass ([4]; 125 g ai/ha, scale 0 to 100) | Plant response rating, Bermudagrass [4, 12] | Plant response rating, Bermudagrass [4, 13] | Plant response rating, Surinam Grass ([5]; 125 g ai/ha, scale 0 to 100) | Plant response rating, Surinam Grass [5, 13] | Plant response rating, Chickweed ([6]; 125 g ai/ha, scale 0 to 100) | Plant response rating, Chickweed [6, 12] | Plant response rating, Chickweed [6, 13] | Plant response rating, Prickly Sida ([7]; 62 g ai/ha, scale 0 to 100) | Plant response rating, Prickly Sida [7, 12] | Plant response rating, Prickly Sida [7, 13] | also measured
1 | CCc1nn(C(C)(C)C)nc1C(=O)Nc1cccc(C(=O)N(C)CC)c1 [Compound 384] | 40 | 60 | 70 | 85 | 40 | 35 | 20 | 30 | 80 | 95 | 95 | 95 | 60 | 95 | 95 | 95 | 100 | 60 | 60 | 95 | Plant response rating, Nutsedge, Purple ([2]; 62 g ai/ha, scale 0 to 100): 60; Plant response rating, Chickweed ([6]; 62 g ai/ha, scale 0 to 100): 75; Plant response rating, Quackgrass ([8]; 62 g ai/ha, scale 0 to 100): 50; Plant response rating, Quackgrass ([8]; 125 g ai/ha, scale 0 to 100): 70; Plant response rating, Quackgrass [8, 12]: 85; Plant response rating, Quackgrass [8, 13]: 85; Plant response rating, Beggarticks, Bip. ([9]; 62 g ai/ha, scale 0 to 100): 10; Plant response rating, Beggarticks, Bip. [9, 12]: 100; Plant response rating, Bluegrass ([10]; 62 g ai/ha, scale 0 to 100): 50; Plant response rating, Bluegrass ([10]; 125 g ai/ha, scale 0 to 100): 75; Plant response rating, Bluegrass [10, 12]: 80; Plant response rating, Bluegrass [10, 13]: 95; Plant response rating, Morningglory ([11]; 62 g ai/ha, scale 0 to 100): 10; Plant response rating, Morningglory ([11]; 125 g ai/ha, scale 0 to 100): 60; Plant response rating, Morningglory [11, 12]: 80; Plant response rating, Morningglory [11, 13]: 90
2 | Cc1nn(C(C)(C)C)nc1C(=O)Nc1cccc(C(=O)N2CC=CC2)c1 [Compound 393] | 0 | 10 | 30 | 60 | 65 | 65 | 60 | 65 | 40 | 90 | 95 | 100 | 20 | 70 | 60 | 100 | 100 | 30 | 75 | 100 | Plant response rating, Nutsedge, Purple [2, 12]: 20; Plant response rating, Nutsedge, Purple [2, 13]: 100; Plant response rating, Prickly Sida ([7]; 125 g ai/ha, scale 0 to 100): 70; Plant response rating, Quackgrass ([8]; 62 g ai/ha, scale 0 to 100): 50; Plant response rating, Quackgrass ([8]; 125 g ai/ha, scale 0 to 100): 50; Plant response rating, Quackgrass [8, 12]: 60; Plant response rating, Quackgrass [8, 13]: 60; Plant response rating, Beggarticks, Bip. ([9]; 62 g ai/ha, scale 0 to 100): 30; Plant response rating, Beggarticks, Bip. ([9]; 125 g ai/ha, scale 0 to 100): 100; Plant response rating, Beggarticks, Bip. [9, 12]: 100; Plant response rating, Beggarticks, Bip. [9, 13]: 100; Plant response rating, Bluegrass ([10]; 62 g ai/ha, scale 0 to 100): 10; Plant response rating, Bluegrass ([10]; 125 g ai/ha, scale 0 to 100): 30; Plant response rating, Bluegrass [10, 12]: 75; Plant response rating, Bluegrass [10, 13]: 95; Plant response rating, Morningglory ([11]; 62 g ai/ha, scale 0 to 100): 0; Plant response rating, Morningglory ([11]; 125 g ai/ha, scale 0 to 100): 60; Plant response rating, Morningglory [11, 12]: 95; Plant response rating, Morningglory [11, 13]: 95
